Results published in US11739074B2, “Ras inhibitors” (Revolution Medicines, Inc., priority 2019, dated 2023).
Like-named read-outs stand apart in the source and are kept apart here.

What was measured:
KRAS G12D = KRAS G12D (Homo sapiens, UniProt P01116+P62937, G12D); experiment: Ras-Raf disruption/FRET/MOA assay, KRAS G12D; assay type: biochemical
Method in brief: (§1)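 His6-KRAS-GMPPNP (12.5 nM) was combined with tagless Cyclophilin A (25 μM) and GST-BRAF^RBD (50 nM) in pH 7.3 HEPES buffer with NaCl, MgCl2, Tween20 and BSA. Compound was tested as a 10-point 3-fold series from 30 μM final, 3 h at 25° C. Disruption was read as a drop in TR-FRET ratio versus DMSO.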

NRAS Q61K = biological target: T1, NRAS Q61K (Homo sapiens, UniProt P01111+P62937, Q61K); experiment: Ras-Raf disruption/FRET/MOA assay, NRAS Q61K; assay type: biochemical
T1 construct: His6
T1 sequence (P01111 whole entry Q61K): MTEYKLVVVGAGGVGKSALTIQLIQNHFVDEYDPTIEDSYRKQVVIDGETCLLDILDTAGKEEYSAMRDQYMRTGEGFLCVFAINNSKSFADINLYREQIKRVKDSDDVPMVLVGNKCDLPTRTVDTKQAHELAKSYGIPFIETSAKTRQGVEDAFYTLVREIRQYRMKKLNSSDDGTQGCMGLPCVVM
T1 sequence (P62937 whole entry): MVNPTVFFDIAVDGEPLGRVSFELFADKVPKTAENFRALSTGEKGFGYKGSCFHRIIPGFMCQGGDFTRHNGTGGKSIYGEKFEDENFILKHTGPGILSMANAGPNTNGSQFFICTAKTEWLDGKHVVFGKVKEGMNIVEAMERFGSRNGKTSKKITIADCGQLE
Source text: (§2) Disruption of B-Raf Ras-Binding Domain (BRAF^RBD) Interaction with K-Ras by Compounds of the Invention (Also Called a FRET Assay or an MOA Assay)
(§3) Note—The following protocol describes a procedure for monitoring disruption of K-Ras G12C (GMP-PNP) binding to BRAF^RBD by a compound of the invention. This protocol may also be executed substituting other Ras proteins or nucleotides, such as K-Ras G12D and K-Ras G13D.
(§4) The purpose of this biochemical assay was to measure the ability of test compounds to facilitate ternary complex formation between a nucleotide-loaded K-Ras isoform and Cyclophilin A; the resulting ternary complex disrupts binding to a BRAF^RBD construct, inhibiting K-Ras signaling through a RAF effector.
(§5) In assay buffer containing 25 mM HEPES pH 7.3, 0.002% Tween20, 0.1% BSA, 100 mM NaCl and 5 mM MgCl2, tagless Cyclophilin A, His6-K-Ras-GMPPNP, and GST-BRAF^RBD were combined in a 384-well assay plate at final concentrations of 25 μM, 12.5 nM, and 50 nM, respectively. Compound was present in plate wells as a 10-point 3-fold dilution series starting at a final concentration of 30 μM. After incubation at 25° C. for 3 hours, a mixture of anti-His Eu-W1024 and anti-GST allophycocyanin was then added to assay sample wells at final concentrations of 10 nM and 50 nM, respectively, and the reaction incubated for an additional 1.5 hours. […] Compounds that facilitate disruption of a K-Ras:RAF complex were identified as those eliciting a decrease in the TR-FRET ratio relative to DMSO control wells.

KRAS WT = KRAS WT (Homo sapiens, UniProt P01116+P62937); experiment: Ras-Raf disruption/FRET/MOA assay, KRAS WT; assay type: biochemical
Chain of KRAS WT (P01116 1-169 isoform P01116-2 limits assumed): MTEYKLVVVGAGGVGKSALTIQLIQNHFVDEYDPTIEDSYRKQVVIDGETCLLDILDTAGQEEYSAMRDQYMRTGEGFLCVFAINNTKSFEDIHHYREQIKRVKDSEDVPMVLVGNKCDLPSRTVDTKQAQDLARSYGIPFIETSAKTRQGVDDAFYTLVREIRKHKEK
Chain of KRAS WT (P62937 whole entry): as the sequence (P62937 whole entry) above
Method in brief: as §1

NRAS WT = biological target: T2, NRAS WT (Homo sapiens, UniProt P01111+P62937); experiment: Ras-Raf disruption/FRET/MOA assay, NRAS WT; assay type: biochemical
T2 construct: His6
T2 sequence (P01111 whole entry): as the sequence (P01111 whole entry Q61K) above, with K61Q counted along it
T2 sequence (P62937 whole entry): as the sequence (P62937 whole entry) above

KRAS G13D = KRAS G13D (Homo sapiens, UniProt P01116+P62937, G13D); experiment: Ras-Raf disruption/FRET/MOA assay, KRAS G13D; assay type: biochemical
Chain of KRAS G13D (P01116 1-169 isoform P01116-2 G13D limits assumed): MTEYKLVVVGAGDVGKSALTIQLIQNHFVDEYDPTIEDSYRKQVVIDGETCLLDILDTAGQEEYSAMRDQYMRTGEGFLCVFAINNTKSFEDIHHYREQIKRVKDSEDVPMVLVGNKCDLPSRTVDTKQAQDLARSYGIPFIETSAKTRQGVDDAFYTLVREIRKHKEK
Chain of KRAS G13D (P62937 whole entry): as the sequence (P62937 whole entry) above
Method in brief: as §1

KRAS G13C = KRAS G13C (Homo sapiens, UniProt P01116+P62937, G13C); experiment: Ras-Raf disruption/FRET/MOA assay, KRAS G13C; assay type: biochemical
Chain of KRAS G13C (P01116 1-169 isoform P01116-2 G13C limits assumed): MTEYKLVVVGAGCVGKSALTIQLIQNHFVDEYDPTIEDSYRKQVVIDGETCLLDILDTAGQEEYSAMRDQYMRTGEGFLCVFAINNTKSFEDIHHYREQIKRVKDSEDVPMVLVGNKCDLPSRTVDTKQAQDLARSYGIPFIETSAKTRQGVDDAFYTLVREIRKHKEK
Chain of KRAS G13C (P62937 whole entry): as the sequence (P62937 whole entry) above
Method in brief: as §1

AsPC-1 (K-Ras G12D) [1] = experiment: Potency assay: pERK in AsPC-1 cells; assay type: cell-based; conditions: Homo sapiens
KRAS Q61H = KRAS Q61H (Homo sapiens, UniProt P01116+P62937, Q61H); experiment: Ras-Raf disruption/FRET/MOA assay, KRAS Q61H; assay type: biochemical
Chain of KRAS Q61H (P01116 1-169 isoform P01116-2 Q61H limits assumed): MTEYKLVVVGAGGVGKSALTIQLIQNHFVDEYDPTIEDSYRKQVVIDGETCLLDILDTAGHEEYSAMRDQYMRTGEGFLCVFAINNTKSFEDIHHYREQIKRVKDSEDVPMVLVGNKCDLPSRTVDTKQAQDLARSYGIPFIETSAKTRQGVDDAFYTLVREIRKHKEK
Chain of KRAS Q61H (P62937 whole entry): as the sequence (P62937 whole entry) above
Source text: as §2, §3, §4, §5

KRAS G12V = KRAS G12V (Homo sapiens, UniProt P01116+P62937, G12V); experiment: Ras-Raf disruption/FRET/MOA assay, KRAS G12V; assay type: biochemical
Chain of KRAS G12V (P01116 1-169 isoform P01116-2 G12V limits assumed): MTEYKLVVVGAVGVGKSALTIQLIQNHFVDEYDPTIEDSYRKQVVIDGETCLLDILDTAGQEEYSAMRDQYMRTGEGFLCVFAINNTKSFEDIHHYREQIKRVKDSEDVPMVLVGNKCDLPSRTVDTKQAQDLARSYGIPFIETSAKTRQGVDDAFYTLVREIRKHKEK
Chain of KRAS G12V (P62937 whole entry): as the sequence (P62937 whole entry) above
Method in brief: as §1

NRAS Q61R = biological target: T3, NRAS Q61R (Homo sapiens, UniProt P01111+P62937, Q61R); experiment: Ras-Raf disruption/FRET/MOA assay, NRAS Q61R; assay type: biochemical
T3 construct: His6
T3 sequence (P01111 whole entry Q61R): as the sequence (P01111 whole entry Q61K) above, with K61R counted along it
T3 sequence (P62937 whole entry): as the sequence (P62937 whole entry) above
Source text: as §2, §3, §4, §5

NCI-H358 (K-Ras G12C) = experiment: CellTiter-Glo cell viability assay, H358; assay type: cell-based; conditions: Homo sapiens, NCI-H358, 120 h
Method in brief: (§6)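 Compounds dispensed directly onto seeded AsPC-1 (K-Ras G12D) or NCI-H358 (K-Ras G12C) cells; CellTiter-Glo luminescence read on day 5 after ~30 min equilibration to room temperature. Signal normalized to DMSO average (%) and fit by four-parameter logistic.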

KRAS G12C = KRAS G12C (Homo sapiens, UniProt P01116+P62937, G12C); experiment: Ras-Raf disruption/FRET/MOA assay, KRAS G12C; assay type: biochemical
Chain of KRAS G12C (P01116 1-169 isoform P01116-2 G12C limits assumed): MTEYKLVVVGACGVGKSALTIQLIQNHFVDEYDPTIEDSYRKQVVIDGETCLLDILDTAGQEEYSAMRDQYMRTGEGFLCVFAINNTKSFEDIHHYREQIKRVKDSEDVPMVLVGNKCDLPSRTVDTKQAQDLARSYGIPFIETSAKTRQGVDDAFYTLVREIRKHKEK
Chain of KRAS G12C (P62937 whole entry): as the sequence (P62937 whole entry) above
Method in brief: as §1

NRAS G12C = biological target: T4, NRAS G12C (Homo sapiens, UniProt P01111+P62937, G12C); experiment: Ras-Raf disruption/FRET/MOA assay, NRAS G12C; assay type: biochemical
T4 construct: His6
T4 sequence (P01111 whole entry G12C): as the sequence (P01111 whole entry Q61K) above, with G12C, K61Q counted along it
T4 sequence (P62937 whole entry): as the sequence (P62937 whole entry) above
Method in brief: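 Disruption of Ras:RAF binding was read as a drop in TR-FRET ratio versus DMSO controls. The buffer was 25 mM HEPES pH 7.3, 0.002% Tween20, 0.1% BSA, 100 mM NaCl and 5 mM MgCl2. Compounds were tested as a 10-point 3-fold dilution series from 30 μM. Detection used 10 nM anti-His Eu-W1024 and 50 nM anti-GST allophycocyanin.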

KRAS G12S = KRAS G12S (Homo sapiens, UniProt P01116+P62937, G12S); experiment: Ras-Raf disruption/FRET/MOA assay, KRAS G12S; assay type: biochemical
Chain of KRAS G12S (P01116 1-169 isoform P01116-2 G12S limits assumed): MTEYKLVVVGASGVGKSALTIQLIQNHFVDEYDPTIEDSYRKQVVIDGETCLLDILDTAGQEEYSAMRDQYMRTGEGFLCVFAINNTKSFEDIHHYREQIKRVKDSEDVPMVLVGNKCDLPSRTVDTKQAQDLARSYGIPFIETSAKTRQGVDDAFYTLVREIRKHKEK
Chain of KRAS G12S (P62937 whole entry): as the sequence (P62937 whole entry) above
Method in brief: as §1

AsPC-1 (K-Ras G12D) [2] = experiment: CellTiter-Glo cell viability assay, AsPC-1; assay type: cell-based; conditions: Homo sapiens, ASPC1, 120 h
Method in brief: as §6

[3] = disruption of BRAF RBD binding, with Cyclophilin A, read-out: KRAS G12D FRET IC50
[4] = NRAS Q61K, read-out: NRAS Q61K FRET data IC50
[5] = disruption of BRAF RBD binding, with Cyclophilin A, read-out: KRAS WT FRET IC50
[6] = NRAS WT, read-out: NRAS WT FRET data IC50
[7] = disruption of BRAF RBD binding, with Cyclophilin A, read-out: KRAS G13D FRET IC50
[8] = disruption of BRAF RBD binding, with Cyclophilin A, read-out: KRAS G13C FRET IC50
[9] = ASPC1, AsPC-1 cells, K-Ras G12D, read-out: pERK EC50 (AsPC-1 KRAS G12D)
[10] = KRAS Q61H, read-out: KRAS Q61H FRET data IC50
[11] = disruption of BRAF RBD binding, with Cyclophilin A, read-out: KRAS G12V FRET IC50
[12] = NRAS Q61R, read-out: NRAS Q61R FRET data IC50
[13] = NCI-H358, K-Ras G12C, 5-day treatment, read-out: H358 Cell Viability IC50
[14] = disruption of BRAF RBD binding, with Cyclophilin A, read-out: KRAS G12C FRET IC50
[15] = NRAS G12C, read-out: NRAS G12C FRET data IC50
[16] = disruption of BRAF RBD binding, with Cyclophilin A, read-out: KRAS G12S FRET IC50
[17] = AsPC-1, K-Ras G12D, 5-day treatment, read-out: AsPC-1 Cell Viability IC50

Chain of KRAS G12D (P01116 1-169 isoform P01116-2 G12D limits assumed): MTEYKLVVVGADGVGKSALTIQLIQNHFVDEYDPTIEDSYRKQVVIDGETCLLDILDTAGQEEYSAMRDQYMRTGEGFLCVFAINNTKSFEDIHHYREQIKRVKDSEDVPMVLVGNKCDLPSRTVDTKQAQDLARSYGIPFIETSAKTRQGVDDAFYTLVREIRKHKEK
Chain of KRAS G12D (P62937 whole entry): as the sequence (P62937 whole entry) above

Structure (SMILES) | IC50 (KRAS G12D; [3]) [nM] | IC50 (NRAS Q61K; [4]) [nM] | IC50 (KRAS WT; [5]) [nM] | IC50 (NRAS WT; [6]) [nM] | IC50 (KRAS G13D; [7]) [nM] | IC50 (KRAS G13C; [8]) [nM] | EC50 (AsPC-1 (K-Ras G12D) [1]; [9]) [nM] | IC50 (KRAS Q61H; [10]) [nM] | IC50 (KRAS G12V; [11]) [nM] | IC50 (NRAS Q61R; [12]) [nM] | IC50 (NCI-H358 (K-Ras G12C); [13]) [nM] | IC50 (KRAS G12C; [14]) [nM] | IC50 (NRAS G12C; [15]) [nM] | IC50 (KRAS G12S; [16]) [nM] | IC50 (AsPC-1 (K-Ras G12D) [2]; [17]) [nM] | further results
CCC(C)N(C)C(=O)c1cncc(-c2c3c4cc(ccc4n2CC)-c2cc(O)cc(c2)C[C@H](NC(=O)[C@H](C(C)C)N(C)C(=O)CN(C)C(=O)[C@H]2CN2)C(=O)N2CCC[C@H](N2)C(=O)OCC(C)(C)C3)c1 (stereo partly drawn) [Compound 144] | – | – | – | – | – | – | – | – | – | – | – | – | – | – | – | IC50 (KRAS G12D): 100 to 1000 nM; IC50 (NRAS Q61K): 1000 to 10000 nM; IC50 (KRAS WT): 100 to 1000 nM; IC50 (NRAS WT): 100 to 1000 nM; IC50 (KRAS G13D): 100 to 1000 nM; IC50 (KRAS G13C): 10 to 100 nM; EC50 (AsPC-1 (K-Ras G12D) [1]; ASPC1, read-out: pERK EC50 (AsPC-1 KRAS G12D)): < 5000 nM; IC50 (KRAS Q61H): 10 to 100 nM; IC50 (KRAS G12V): 100 to 1000 nM; IC50 (NRAS Q61R): 1000 to 10000 nM; IC50 (NCI-H358 (K-Ras G12C); read-out: H358 Cell Viability IC50, NCI-H358, K-Ras G12C, 5-day treatment): 10 to 100 nM; IC50 (KRAS G12C): 10 to 100 nM; IC50 (NRAS G12C; NRAS G12C FRET data IC50, NRAS G12C): 10 to 100 nM; IC50 (KRAS G12S): 100 to 1000 nM; IC50 (AsPC-1 (K-Ras G12D) [2]; read-out: AsPC-1 Cell Viability IC50, AsPC-1, K-Ras G12D, 5-day treatment): 100 to 1000 nM
CCn1c(-c2cccnc2[C@H](C)OC)c2c3cc(ccc31)-c1cc(O)cc(c1)C[C@H](NC(=O)[C@H](C(C)C)N1CO[C@]3(CCN(C(=O)[C@H]4CN4)C3)C1=O)C(=O)N1CCC[C@H](N1)C(=O)OCC(C)(C)C2 [Compound 231] | 10 to 100 | 10 to 100 | 10 to 100 | 10 to 100 | 10 to 100 | < 10 | < 5000 | < 10 | 10 to 100 | 100 to 1000 | < 10 | < 10 | < 10 | 10 to 100 | 100 to 1000 | –
CCn1c(-c2cccnc2[C@H](C)OC)c2c3cc(ccc31)-c1csc(n1)C[C@H](NC(=O)[C@H](C(C)C)N(C)C(=O)N1C3CCC1CN(C(=O)[C@H]1CN1)C3)C(=O)N1CCC[C@H](N1)C(=O)OCC(C)(C)C2 [Compound 303] | 100 to 1000 | 100 to 1000 | 100 to 1000 | 100 to 1000 | 100 to 1000 | 100 to 1000 | < 5000 | 10 to 100 | 100 to 1000 | 100 to 1000 | 10 to 100 | 100 to 1000 | 100 to 1000 | 100 to 1000 | 100 to 1000 | –
CCn1c(-c2cccnc2[C@H](C)OC)c2c3cc(ccc31)-c1csc(n1)C[C@H](NC(=O)[C@H](C(C)C)N(C)C(=O)N1C3CCC1CN(C(=O)[C@@H]1CN1)C3)C(=O)N1CCC[C@H](N1)C(=O)OCC(C)(C)C2 [Compound 304] | 100 to 1000 | 100 to 1000 | 100 to 1000 | 100 to 1000 | 1000 to 10000 | 1000 to 10000 | < 5000 | 10 to 100 | 100 to 1000 | 100 to 1000 | 100 to 1000 | 100 to 1000 | 100 to 1000 | 100 to 1000 | 1000 to 10000 | –
CCn1c(-c2cccnc2[C@H](C)OC)c2c3cc(ccc31)-c1cc(O)cc(c1)C[C@H](NC(=O)[C@H](C(C)C)N1CCCC3(CN(C(=O)[C@H]4CN4)C3)C1=O)C(=O)N1CCC[C@H](N1)C(=O)OCC(C)(C)C2 [Compound 307] | 100 to 1000 | 100 to 1000 | 10 to 100 | 10 to 100 | 10 to 100 | 10 to 100 | < 5000 | 10 to 100 | 10 to 100 | 100 to 1000 | < 10 | < 10 | < 10 | 10 to 100 | 100 to 1000 | –
CCn1c(-c2cccnc2[C@H](C)OC)c2c3cc(ccc31)-c1csc(n1)C[C@H](NC(=O)[C@H](C1CCCC1)N1CC[C@]3(CCN(C(=O)[C@H]4CN4)C3)C1=O)C(=O)N1CCC[C@H](N1)C(=O)OCC(C)(C)C2 [Compound 319] | 1000 to 10000 | 100 to 1000 | 1000 to 10000 | 1000 to 10000 | 1000 to 10000 | 100 to 1000 | < 5000 | 100 to 1000 | 1000 to 10000 | 1000 to 10000 | < 10 | 10 to 100 | 10 to 100 | 1000 to 10000 | 100 to 1000 | –
